From ChEMBL document CHEMBL1145485, “Immunomodulatory peptide from cystatin, a natural cysteine protease inhibitor, against leishmaniasis as a model macrophage disease” (Antimicrob Agents Chemother, 2007)
Active and inactive are the calls of the source. The rule behind the calls is not given here.

What was measured:
Leishmania donovani [1] = assay: Reversal of antileishmanial activity against Leishmania donovani MHOM/IN/1983 infected BALB/c mouse peritoneal macrophages in presence of anti-peptide antibody; format: functional, organism-based
Leishmania donovani [2] = assay: Reversal of antileishmanial activity against Leishmania donovani MHOM/IN/1983 infected BALB/c mouse peritoneal macrophages in presence of 2-amino-5,6-dihydro-6-methyl-4H-1,3-thiazine; format: functional, organism-based
Leishmania donovani [3] = assay: Antileishmanial activity against Leishmania donovani AG83 infected BALB/c mouse assessed as reduction of liver burden at 0.5 mg/kg/day, iv in presence of IFN-gamma after 45 days; format: functional; design: scale not given: the % may be the effect or the level left
Macrophage [4] = assay: Reversal of increase in NO release in BALB/c mouse peritoneal macrophages upto 1 uM in presence of anti-peptide antibody; format: functional, cell-based
Macrophage [5] = assay: Increase in NO release in BALB/c mouse peritoneal macrophages upto 1 uM; format: functional, cell-based
Leishmania donovani [6] = assay: Antileishmanial activity against Leishmania donovani AG83 infected BALB/c mouse assessed as reduction of spleen burden at 0.5 mg/kg/day, iv in presence of IFN-gamma after 45 days; format: functional; design: scale not given: the % may be the effect or the level left
Leishmania donovani [7] = assay: Antileishmanial activity against Leishmania donovani MHOM/IN/1983 infected BALB/c mouse peritoneal macrophages in presence of IFN-gamma; format: functional, organism-based

**Q.** Which Activity (Leishmania donovani [1]) does the source give for H-PVPVDENDEG-OH here?
**A.** Active

**Q.** And the Activity (Leishmania donovani [2])?
**A.** Active

**Q.** And the Activity (Leishmania donovani [3])?
**A.** 93%

**Q.** And the Activity (Macrophage [4])?
**A.** Active

**Q.** What about the Activity (Macrophage [5]) of the same substance?
**A.** Active

**Q.** And the Activity (Leishmania donovani [6])?
**A.** 95%

**Q.** And the IC50 (Leishmania donovani [7])?
**A.** 0.52 µg/mL
